Laboratory results as given in patent US12157746B2, “Tetrahydro-1H-pyrazino[2,1-a]isoindolylquinoline compounds for the treatment of autoimmune disease” (F. HOFFMANN-LA ROCHE AG, priority 2018, dated 2024).

Experiments:
[1] = Human microsomal stability assay; type: in vitro ADME; conditions: human liver microsomes 0.5 mg/mL, 37° C., pH 7.4, NADPH regenerating system, 0-30 minutes
In short: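 Human liver microsomes (0.5 mg/mL) with […] compound in 100 mM potassium phosphate, pH 7.4, 37° C; reaction started with NADPH regenerating system after 10 min preincubation. Parent remaining at 0–30 min quantified by LC-MS/MS; clearance binned low (<7.0), medium (7.0-16.2) or high (16.2-23.2) mL/min/kg.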

human TLR8 = molecular target: T1, human TLR8 (Homo sapiens, UniProt Q9NR97); experiment: HEK293-Blue-hTLR-8 cells assay; type: cell-based; conditions: HEK293-Blue-hTLR8 cells, R848 stimulation, 20 hrs, SEAP reporter; read-out: HEK/hTLR8 IC50
T1 sequence (Q9NR97 27-1041): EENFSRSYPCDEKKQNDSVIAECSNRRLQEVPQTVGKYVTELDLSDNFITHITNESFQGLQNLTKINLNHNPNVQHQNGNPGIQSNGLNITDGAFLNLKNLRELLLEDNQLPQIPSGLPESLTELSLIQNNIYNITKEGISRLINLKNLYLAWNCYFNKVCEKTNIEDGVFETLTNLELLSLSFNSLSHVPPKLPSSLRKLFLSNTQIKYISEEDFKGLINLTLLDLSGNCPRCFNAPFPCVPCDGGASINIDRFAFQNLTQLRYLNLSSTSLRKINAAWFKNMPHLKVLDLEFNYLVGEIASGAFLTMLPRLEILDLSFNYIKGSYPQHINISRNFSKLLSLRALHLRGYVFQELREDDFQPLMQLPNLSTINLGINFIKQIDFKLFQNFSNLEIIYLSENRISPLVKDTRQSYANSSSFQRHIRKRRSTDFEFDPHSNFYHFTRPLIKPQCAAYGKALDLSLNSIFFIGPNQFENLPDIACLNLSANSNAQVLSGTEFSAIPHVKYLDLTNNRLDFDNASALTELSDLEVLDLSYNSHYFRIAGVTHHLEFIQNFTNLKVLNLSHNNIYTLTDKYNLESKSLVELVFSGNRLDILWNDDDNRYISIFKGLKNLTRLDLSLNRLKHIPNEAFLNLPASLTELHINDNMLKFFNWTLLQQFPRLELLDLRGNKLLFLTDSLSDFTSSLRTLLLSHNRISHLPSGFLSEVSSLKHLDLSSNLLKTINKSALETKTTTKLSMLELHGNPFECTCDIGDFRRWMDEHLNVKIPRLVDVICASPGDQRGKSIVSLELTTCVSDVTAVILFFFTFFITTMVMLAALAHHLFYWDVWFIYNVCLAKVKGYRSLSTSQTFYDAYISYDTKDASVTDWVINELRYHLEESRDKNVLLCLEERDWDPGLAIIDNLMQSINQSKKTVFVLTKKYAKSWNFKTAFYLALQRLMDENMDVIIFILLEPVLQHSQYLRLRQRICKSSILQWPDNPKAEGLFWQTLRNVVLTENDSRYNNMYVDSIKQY
In short: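 Antagonism read out in HEK293-Blue-hTLR8 cells carrying an NF-κB/AP-1-driven SEAP reporter, stimulated with R848 (10 μL of 60 uM stock added) alongside serially diluted compound (1% DMSO), 20 h at 37° C. Supernatant SEAP measured with QUANTI-Blue after 2 h at 37° C, absorbance at 620-655 nm.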

Row | CL (h) [1] [mL/min/kg] | IC50 (human TLR8) [nM] | Compound
1 | 6.2 | < 3.2 | C[C@@H]1CN(c2ccc(C#N)c3ncccc23)C[C@@H]2c3ccc(N4CC5CNCC(C4)O5)cc3CN12 [Example 14, 5-[(4R,10bS)-4-methyl-8-(9-oxa-3,7-diazabicyclo[3.3.1]nonan-3-yl)-3,4,6,10b-tetrahydro-1H-pyrazino[2,1-a]isoindol-2-yl]quinoline-8-carbonitrile]
2 | 7.7 | < 3.2 | C[C@@H]1CN(c2ccc(C#N)c3ncccc23)C[C@@H]2c3ccc(N4CCC(N)(CO)C4)cc3CN12 (stereo partly drawn) [Example 19, 5-[(4R,10bS)-8-[3-amino-3-(hydroxymethyl)pyrrolidin-1-yl]-4-methyl-3,4,6,10b-tetrahydro-1H-pyrazino[2,1-a]isoindol-2-yl]quinoline-8-carbonitrile]
3 | 7.5 | < 3.2 | C[C@@H]1CN(c2ccc(C#N)c3ncccc23)C[C@@H]2c3ccc(N4CCOC[C@H](N)C4)cc3CN12 [Example 54A, 5-[(4R,10bS)-8-[(6R)-6-amino-1,4-oxazepan-4-yl]-4-methyl-3,4,6,10b-tetrahydro-1H-pyrazino[2,1-a]isoindol-2-yl]quinoline-8-carbonitrile]
4 | 6.2 | < 3.2 | C[C@@H]1CN(c2ccc(C#N)c3ncccc23)C[C@@H]2c3ccc(NCCN(C)C)cc3CN12 [Example 26, 5-[(4R,10bS)-8-[2-(dimethylamino)ethylamino]-4-methyl-3,4,6,10b-tetrahydro-1H-pyrazino[2,1-a]isoindol-2-yl]quinoline-8-carbonitrile]
